One data set has as its system BV2 cells. The experiment in a line: LPS-induced pro-inflammatory cytokine release (IL-6, TNFα) in BV2 microglia with miR-195-5p over-expression. Format: cell-based. On the procedure: For example, LPS (at 0.2 μg/ml) treatment for overnight in BV2 cells leads to increased expression of pdcd4 and smad7 (FIG. 13A) and reduced expression of il10ra (FIG. 13C). […] Over-expression of miR-195-5p also attenuates LPS-induced pro-inflammatory cytokine release (IL-6 and TNFα; FIG. 13B). […] For these experiments, purified exosomes were derived from human APOE3/3 and 4/4 iPSC-derived astrocytes w/wo miR-195 over-expression detected by an exosome marker, ALIX. Fluorescence labeled exosomes were taken up by IBA1+ microglia cells.
Over-expression of miR-195-5p in microglia inhibits LPS-induced proinflammatory responses and augments anti-inflammatory responses. […] However, over-expression of miR-195-5p reduces expression levels of pdcd4 and smad7 and increases il10a expression in the presence of LPS. Over-expression of miR-195-5p also attenuates LPS-induced pro-inflammatory cytokine release (IL-6 and TNFα; FIG. 17B).

The next data set has as its system synj1. The experiment in a line: brain synj1 mRNA and protein levels in ApoE KI mice after miR-195 over-expression. The class given is in vivo, mouse. On the procedure:
Stereotaxic injection and behavior studies. Eight to nine weeks old male and female ApoE3^+/+ and ApoE4^+/+ KI mice without 5×FAD background (N=19-23/group), or with 5×FAD background (N=15-17/group) were placed in the stereotaxic apparatus with AAV2 or scramble virus administered into the dorsal CA1 regions of bilateral hippocampal brain regions using pressure injection (Labonte B et al., Nat Med 2017, and Passini M A et al., The Journal of neuroscience 2006). Injection volumes (0.5-2.0 μl) were delivered over 10 min to avoid tissue damage. Six to nine months after viral delivery, mice were tested with the NOR task (Zhu L et al., Proc Natl Acad Sci USA 2015, Elder G A et al., J Neurotrauma 2012, and Howlett D R et al., Brain Res 2004). Mice were randomized for genotype and sex, and blinded throughout the behavior data collection and analysis, surgical manipulations, and sample collection.
Brain and neuronal sample preparation and biochemical analysis. Snap-frozen mouse hemi-brains or cultured neurons were harvested in lysis buffer (Lane R F et al., The Journal of neuroscience 2010) and processed via step-wise solubilization (Lane R F et al., The Journal of neuroscience 2010, and Kawarabayashi T et al. The Journal of neuroscience 2001) followed by SDS-PAGE to determine levels of synj1, dyn1, holoAPP, and CTFs. Levels of Aβ42, Aβ40, pTau, Tau and ApoE were determined using high-sensitive ELISA kits. Some tissue was used for miRNA and RNA extraction followed by qPCR and RNA-seq analysis. […]
(§1) Statistical analysis. […] Levels of miR-195-5p and miR-374 were normalized to U6 and RNU6B (internal controls) while synj1 mRNA normalized to GAPDH and 18s, and then expressed as Log2fold of changes when compared to controls. Levels of synj1, dyn1, pTau, Tau, and holoAPP were normalized to β-actin levels and expressed as a percentage of the control. Absolute Aβ42, Aβ40, pTau, Tau, and ApoE concentrations were quantitatively determined by ELISA and expressed as a percentage of the control. […] Pearson correlation coefficients were calculated to determine the linear relationship between the two variables. […]

The test system of a further data set is holo-APP or BACE-1. The experiment in a line: brain holo-APP and BACE-1 levels in EFAD mice after miR-195-5p over-expression. Conditions: EFAD mouse brains. The class given is in vivo. How it is done: Stereotaxic injection and behavior studies. Eight to nine weeks old male and female ApoE3^+/+ and ApoE4^+/+ KI mice without 5×FAD background (N=19-23/group), or with 5×FAD background (N=15-17/group) were placed in the stereotaxic apparatus with AAV2 or scramble virus administered into the dorsal CA1 regions of bilateral hippocampal brain regions using pressure injection (Labonte B et al., Nat Med 2017, and Passini M A et al., The Journal of neuroscience 2006). Injection volumes (0.5-2.0 μl) were delivered over 10 min to avoid tissue damage. […]
(§2) Brain and neuronal sample preparation and biochemical analysis. […] Levels of Aβ42, Aβ40, pTau, Tau and ApoE were determined using high-sensitive ELISA kits. […]
as §1

The next data set concerns pTau. The experiment in a line: pTau levels in iPSC-derived brain cell culture (AT8 staining, ELISA). The class given is cell-based, human. As to conditions: iPSC-derived neuron and astrocyte co-culture. On the procedure: (§3) Mouse Neuronal and human iPSC culture. Primary cortical neurons were cultured (Zhu L et al., Proc Natl Acad Sci USA 2015, and Zhu L et al., J Biol Chem 2013) before being fixed and stained for confocal microscopy analysis (Zeiss LSM) (Berg I et al., Nat Protoc 2010). In some conditions, bovine serum albumin (BSA) or receptor-associated protein (RAP) was included in the cultured media (N=3/group). Alternatively, cultured neurons were transfected with adeno-associated virus 2 (AAV2)-containing miR-195-5p or miR-374 or scramble controls for 5 days before subjected to analysis. The ApoE4^+/+ and ApoE3^+/+ iPSCs were differentiated into neural progenitor cells (NPCs) by dual SMAD inhibition followed by neural rosette selection and forebrain-specific patterning by 20 ng/ml FGF2 exposure (Bowles K R et al., PloS one 2019, and Tcw J et al., Stem cell reports 2017). […]
as §2

The subject of data set [1] is lysosomes of synj1+/+ and synj1-/- neurons. The experiment in a line: lysosome size in mouse synj1+/+ and synj1-/- neurons co-cultured with ApoE4+/+ iPSC-derived astrocytes. Format: cell-based. On the procedure: as §3, with “2017). These NPCs were purified by MACS for CD271^−/CD133^+ (Bowles K R et al., PloS one 2019) and differentiated to cortical neurons (Bardy C et al., Proc Natl Acad Sci USA 2015, and Paquet D et al., Nature 2016) and a homogeneous population of astrocytes (Tcw J et al., Stem cell reports 2017, and Shaltouki A et al., Stem Cells 2013) before subjected to viral transfection and confocal microscopy analysis.” for “2017).”

In data set [2] the test system is lysosomes of ApoE4+/+ / ApoE3+/+ neurons. In words: lysosome size and number (Lysotracker, confocal) in neurons of iPSC-derived neuron and astrocyte co-culture. Format: cell-based, human. How it is done:
Mouse Neuronal and human iPSC culture. Primary cortical neurons were cultured (Zhu L et al., Proc Natl Acad Sci USA 2015, and Zhu L et al., J Biol Chem 2013) before being fixed and stained for confocal microscopy analysis (Zeiss LSM) (Berg I et al., Nat Protoc 2010). In some conditions, bovine serum albumin (BSA) or receptor-associated protein (RAP) was included in the cultured media (N=3/group). Alternatively, cultured neurons were transfected with adeno-associated virus 2 (AAV2)-containing miR-195-5p or miR-374 or scramble controls for 5 days before subjected to analysis. The ApoE4^+/+ and ApoE3^+/+ iPSCs were differentiated into neural progenitor cells (NPCs) by dual SMAD inhibition followed by neural rosette selection and forebrain-specific patterning by 20 ng/ml FGF2 exposure (Bowles K R et al., PloS one 2019, and Tcw J et al., Stem cell reports 2017). These NPCs were purified by MACS for CD271^−/CD133^+ (Bowles K R et al., PloS one 2019) and differentiated to cortical neurons (Bardy C et al., Proc Natl Acad Sci USA 2015, and Paquet D et al., Nature 2016) and a homogeneous population of astrocytes (Tcw J et al., Stem cell reports 2017, and Shaltouki A et al., Stem Cells 2013) before subjected to viral transfection and confocal microscopy analysis. Alternatively, mouse cortical neurons derived from ApoE4^+/+ and ApoE3^+/+ KI mice with synj1^+/+ or synj1^−/− genotypes were co-cultured with ApoE4^+/+ and ApoE3^+/+ iPSC-derived pure astrocytes. In some experiments, cultured neurons were transfected with AAV2-containing miR-195-5p, scramble controls or miR195 inhibitors that specifically prevent miR-195-5p binding to its target mRNA before co-culturing with iPSC-derived astrocytes. Cultured iPSC-derived neurons and astrocytes were then incubated with lysotracker red for various time periods before fixation and double-stained for pTau and a nuclear marker DAPI (blue) for confocal microscopy analysis (Zeiss). N=4-5/condition.

Experimental findings from patent publication US20240301408A1, “MICRORNA 195 COMPOSITIONS AND METHODS FOR TREATING COGNITIVE IMPAIRMENT” (UNITED STATES GOVERNMENT AS REPRESENTED BY THE DEPARTMENT …, priority 2021, published 2024) are described below.

Consider “UAGCAGCACAGAAAUAUUGGC (chemistry not given here) [miR-195-5p, over-expressed via AAV2-containing miR-195-5p from ABM Inc]”, for which the “LPS-induced pro-inflammatory cytokine release (IL-6 and TNFα)” value in the data set with BV2 cells is “attenuates”. Besides, the “synj1 mRNA and protein levels” value with synj1 (ApoE3+/+ mouse brains) was “Trends of reduction”. The “synj1 mRNA” value in the data set on synj1 (ApoE4+/+ mouse brains, scramble controls 0.52) is reported as −1.29 Log 2FC. Also, the synj1 protein with synj1 (ApoE4+/+ mouse brains, scramble controls 77.7) is reported as 56.4 % of control. Also, in the data set with holo-APP or BACE-1, the “holo-APP or BACE-1 levels” value is “no significant changes”. Moreover, the “pTau levels (fluorescent staining and ELISA)” value in the data set on pTau is “reduced”. The size of lysosomes in data set [1] (synj1+/+ neurons, control 101.5 μm^2) is 75.8 μm^2; in data set [1] (synj1-/- neurons, control 77.0 μm^2), 69.7 μm^2. Besides, the “lysosomal phenotypes compared to baseline” value in data set [2] (ApoE3+/+ neurons) is given as “No significant differences”. Further, in data set [2] (ApoE4+/+ neurons), the “neurons with lysosome diameter between 0 to 10 μm” value is on record as 53.3%. The “neurons with >10 lysosomes/cell” value in data set [2] (ApoE4+/+ neurons, baseline 18.4%) was found to be 1.7%.
